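Tested at 5 concentrations; 48 h exposure; 96-well plates; endpoints linearly interpolated, else capped at highest concentration. At the GI50, growth is halved. TGI: total growth inhibition.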
Assays:
Assay in all cases: inhibition of tumour cell growth, NCI panel, 48 h
BT-549 breast = system: BT-549 breast
HOP-92 NSCLC = system: HOP-92 NSCLC
MALME-3M melanoma = system: MALME-3M melanoma
SK-MEL-2 melanoma = system: SK-MEL-2 melanoma
U251 CNS = system: U251 CNS
PC-3 prostate = system: PC-3 prostate
SK-OV-3 ovarian = system: SK-OV-3 ovarian
HCT-15 colon = system: HCT-15 colon
MDA-MB-468 breast = system: MDA-MB-468 breast
K-562 leukemia = system: K-562 leukemia
HT29 colon = system: HT29 colon
A549 NSCLC = system: A549 NSCLC
T-47D breast = system: T-47D breast
UACC-62 melanoma = system: UACC-62 melanoma
CCRF-CEM leukemia = system: CCRF-CEM leukemia
KM12 colon = system: KM12 colon
NCI-H460 lung = system: NCI-H460 lung
UACC-257 melanoma = system: UACC-257 melanoma
HCT-116 colon = system: HCT-116 colon
SNB-75 CNS = system: SNB-75 CNS
MDA-MB-231 breast = system: MDA-MB-231 breast
NCI/ADR-RES ovarian = system: NCI/ADR-RES ovarian
MCF7 breast = system: MCF7 breast
TK-10 renal = system: TK-10 renal
HL-60(TB) leukemia = system: HL-60(TB) leukemia
NCI-H23 lung = system: NCI-H23 lung
NCI-H522 lung = system: NCI-H522 lung
COLO 205 colon = system: COLO 205 colon
SN12C renal = system: SN12C renal
SF-268 CNS = system: SF-268 CNS
SNB-19 CNS = system: SNB-19 CNS
HS 578T breast = system: HS 578T breast
SK-MEL-5 melanoma = system: SK-MEL-5 melanoma
ACHN renal = system: ACHN renal
SK-MEL-28 melanoma = system: SK-MEL-28 melanoma
MDA-MB-435 = system: MDA-MB-435
OVCAR-5 ovarian = system: OVCAR-5 ovarian
M14 melanoma = system: M14 melanoma
OVCAR-3 ovarian = system: OVCAR-3 ovarian
EKVX NSCLC = system: EKVX NSCLC
786-0 renal = system: 786-0 renal
LOX IMVI melanoma = system: LOX IMVI melanoma
OVCAR-8 ovarian = system: OVCAR-8 ovarian
CAKI-1 renal = system: CAKI-1 renal
UO-31 renal = system: UO-31 renal
HCC-2998 colon = system: HCC-2998 colon
MOLT-4 leukemia = system: MOLT-4 leukemia
HOP-62 NSCLC = system: HOP-62 NSCLC
IGROV1 ovarian = system: IGROV1 ovarian
SR leukemia = system: SR leukemia
SF-539 CNS = system: SF-539 CNS
OVCAR-4 ovarian = system: OVCAR-4 ovarian
DU-145 prostate = system: DU-145 prostate
SW-620 colon = system: SW-620 colon
SF-295 CNS = system: SF-295 CNS
NCI-H226 lung = system: NCI-H226 lung
RXF 393 renal = system: RXF 393 renal
RPMI-8226 leukemia = system: RPMI-8226 leukemia
A498 renal = system: A498 renal

`O=C(N/N=C/c1ccc(Cl)cc1)c1ccc(OCc2nc3ccc(Cl)cc3[nH]2)cc1` gave a GI50 (BT-549 breast) of 19.5 µM, a TGI (BT-549 breast) of 41.6 µM and a GI50 (HOP-92 NSCLC) of 13.4 µM. For the same compound, the TGI (HOP-92 NSCLC) was 30.8 µM, the GI50 (MALME-3M melanoma) was 11.7 µM and the TGI (MALME-3M melanoma) was 24.5 µM. It also gave a GI50 (SK-MEL-2 melanoma) of 18.6 µM, a TGI (SK-MEL-2 melanoma) of 40 µM and a GI50 (U251 CNS) of 14.2 µM. For the same compound, the TGI (U251 CNS) was 33.1 µM, the GI50 (PC-3 prostate) was 7.48 µM and the TGI (PC-3 prostate) was 24.9 µM. For the same compound, the GI50 (SK-OV-3 ovarian) was 16 µM, the TGI (SK-OV-3 ovarian) was 32.8 µM and the GI50 (HCT-15 colon) was 8.27 µM. For the same compound, the TGI (HCT-15 colon) was 21.9 µM, the GI50 (MDA-MB-468 breast) was 11.6 µM and the TGI (MDA-MB-468 breast) was 24.4 µM. The GI50 (K-562 leukemia) was 3.81 µM, the TGI (K-562 leukemia) was 21.3 µM and the GI50 (HT29 colon) was 15.2 µM. For the same compound, the TGI (HT29 colon) was 45.5 µM, the GI50 (A549 NSCLC) was 12 µM and the TGI (A549 NSCLC) was 34.2 µM. For the same compound, the GI50 (T-47D breast) was 19.3 µM, the TGI (T-47D breast) was 42.9 µM and the GI50 (UACC-62 melanoma) was 12.6 µM. The TGI (UACC-62 melanoma) was 25.4 µM, the GI50 (CCRF-CEM leukemia) was 6.78 µM and the TGI (CCRF-CEM leukemia) was 37.1 µM. For the same compound, the GI50 (KM12 colon) was 20.5 µM, the TGI (KM12 colon) was 66 µM and the GI50 (NCI-H460 lung) was 4.68 µM. For the same compound, the TGI (NCI-H460 lung) was 16.8 µM, the GI50 (UACC-257 melanoma) was 21.1 µM and the TGI (UACC-257 melanoma) was 46.6 µM. For the same compound, the GI50 (HCT-116 colon) was 4.46 µM, the TGI (HCT-116 colon) was 19.2 µM and the GI50 (SNB-75 CNS) was 5.23 µM. The TGI (SNB-75 CNS) was 19.8 µM, the GI50 (MDA-MB-231 breast) was 10.8 µM and the TGI (MDA-MB-231 breast) was 23.2 µM. For the same compound, the GI50 (NCI/ADR-RES ovarian) was 15.9 µM, the TGI (NCI/ADR-RES ovarian) was 68 µM and the GI50 (MCF7 breast) was 10 µM. The TGI (MCF7 breast) was 23.2 µM, the GI50 (TK-10 renal) was 19.5 µM and the TGI (TK-10 renal) was 38.3 µM. It also gave a GI50 (HL-60(TB) leukemia) of 26.4 µM, a TGI (HL-60(TB) leukemia) greater than 100 µM and a GI50 (NCI-H23 lung) of 6.59 µM. The TGI (NCI-H23 lung) was 19.7 µM, the GI50 (NCI-H522 lung) was 19.7 µM and the TGI (NCI-H522 lung) was 41.6 µM. For the same compound, the GI50 (COLO 205 colon) was 15.3 µM, the TGI (COLO 205 colon) was 32.1 µM and the GI50 (SN12C renal) was 12.7 µM. The TGI (SN12C renal) was 25.8 µM, the GI50 (SF-268 CNS) was 21.2 µM and the TGI (SF-268 CNS) was 53.5 µM. For the same compound, the GI50 (SNB-19 CNS) was 15.4 µM, the TGI (SNB-19 CNS) was 29.5 µM and the GI50 (HS 578T breast) was 11.2 µM. For the same compound, the TGI (HS 578T breast) was 50.9 µM, the GI50 (SK-MEL-5 melanoma) was 15.1 µM and the TGI (SK-MEL-5 melanoma) was 30.1 µM. The GI50 (ACHN renal) was 14.3 µM, the TGI (ACHN renal) was 27.8 µM and the GI50 (SK-MEL-28 melanoma) was 12.5 µM. It also gave a TGI (SK-MEL-28 melanoma) of 25.3 µM, a GI50 (MDA-MB-435) of 14.6 µM and a TGI (MDA-MB-435) of 31 µM. The GI50 (OVCAR-5 ovarian) was 14.5 µM, the TGI (OVCAR-5 ovarian) was 32.7 µM and the GI50 (M14 melanoma) was 10.2 µM. The TGI (M14 melanoma) was 25.3 µM, the GI50 (OVCAR-3 ovarian) was 18 µM and the TGI (OVCAR-3 ovarian) was 42.3 µM. The GI50 (EKVX NSCLC) was 14.9 µM, the TGI (EKVX NSCLC) was 28.9 µM and the GI50 (786-0 renal) was 4.34 µM. For the same compound, the TGI (786-0 renal) was 16.9 µM, the GI50 (LOX IMVI melanoma) was 6.22 µM and the TGI (LOX IMVI melanoma) was 19.1 µM. It also gave a GI50 (OVCAR-8 ovarian) of 18.1 µM, a TGI (OVCAR-8 ovarian) of 55.5 µM and a GI50 (CAKI-1 renal) of 17 µM. For the same compound, the TGI (CAKI-1 renal) was 34 µM, the GI50 (UO-31 renal) was 13.1 µM and the TGI (UO-31 renal) was 26.3 µM. The GI50 (HCC-2998 colon) was 11.5 µM, the TGI (HCC-2998 colon) was 25.8 µM and the GI50 (MOLT-4 leukemia) was 7.51 µM. It also gave a TGI (MOLT-4 leukemia) of 27.3 µM, a GI50 (HOP-62 NSCLC) of 15.7 µM and a TGI (HOP-62 NSCLC) of 31.6 µM. It also gave a GI50 (IGROV1 ovarian) of 11.6 µM, a TGI (IGROV1 ovarian) of 24.2 µM and a GI50 (SR leukemia) of 0.62 µM. It also gave a TGI (SR leukemia) greater than 100 µM, a GI50 (SF-539 CNS) of 16.6 µM and a TGI (SF-539 CNS) of 30.6 µM. For the same compound, the GI50 (OVCAR-4 ovarian) was 15.5 µM, the TGI (OVCAR-4 ovarian) was 31.4 µM and the GI50 (DU-145 prostate) was 10.8 µM. The TGI (DU-145 prostate) was 25.3 µM, the GI50 (SW-620 colon) was 6.79 µM and the TGI (SW-620 colon) was 23 µM. It also gave a GI50 (SF-295 CNS) of 12 µM, a TGI (SF-295 CNS) of 24.4 µM and a GI50 (NCI-H226 lung) of 14.1 µM. It also gave a TGI (NCI-H226 lung) of 30.2 µM, a GI50 (RXF 393 renal) of 10.5 µM and a TGI (RXF 393 renal) of 24.4 µM. It also gave a GI50 (RPMI-8226 leukemia) of 16.6 µM, a TGI (RPMI-8226 leukemia) greater than 100 µM and a GI50 (A498 renal) of 21.4 µM. For the same compound, the TGI (A498 renal) was 38.4 µM.

— PubChem BioAssay (NCI)
